# Experimental data reported in ChEMBL document CHEMBL3352057, “Novel fluorinated pyrrolo[1,2-a]pyrazine-2,6-dione derivatives: synthesis and anticonvulsant evaluation in animal models of epilepsy” (Bioorg Med Chem, 2014).
# Activity calls are given as the source filed them. The rule behind the calls is not given here.
# Tested on: Mus musculus
# Test: Anticonvulsant activity in albino CF1 mouse assessed as protection against maximal electroshock-induced seizures at 100 mg/kg, ip measured after 0.25 hr
# Format: functional, organism-based
# Set-up: dose 100 mg/kg
# Settings: not given
row,Compound,Activity
1,O=C1NC(=O)[C@@H]2CCCCN2[C@H]1c1cccc(C(F)(F)F)c1,inactive

# Tested on: Mus musculus
# Test: Anticonvulsant activity in albino CF1 mouse assessed as protection against maximal electroshock-induced seizures at 100 mg/kg, ip measured after 0.5 hr
# Format: functional, organism-based
# Set-up: dose 100 mg/kg
# Settings: not given
row,Compound,Activity
1,O=C1NC(=O)[C@@H]2CCCCN2[C@H]1c1cccc(C(F)(F)F)c1,inactive

# Tested on: Mus musculus
# Test: Anticonvulsant activity in albino CF1 mouse assessed as protection against maximal electroshock-induced seizures at 100 mg/kg, ip measured after 1 hr
# Format: functional, organism-based
# Set-up: dose 100 mg/kg
# Settings: not given
row,Compound,Activity
1,O=C1NC(=O)[C@@H]2CCCCN2[C@H]1c1cccc(C(F)(F)F)c1,inactive

# Tested on: Mus musculus
# Test: Anticonvulsant activity in albino CF1 mouse assessed as protection against maximal electroshock-induced seizures at 100 mg/kg, ip measured after 4 hrs
# Format: functional, organism-based
# Set-up: dose 100 mg/kg
# Settings: not given
row,Compound,Activity
1,O=C1NC(=O)[C@@H]2CCCCN2[C@H]1c1cccc(C(F)(F)F)c1,inactive

# Tested on: Mus musculus
# Test: Anticonvulsant activity in albino CF1 mouse assessed as protection against subcutaneous metrazol-induced seizures at 100 mg/kg, ip measured after 0.25 hr
# Format: functional, organism-based
# Set-up: dose 100 mg/kg
# Settings: not given
row,Compound,Activity
1,O=C1NC(=O)[C@@H]2CCCCN2[C@H]1c1cccc(C(F)(F)F)c1,inactive

# Tested on: Mus musculus
# Test: Anticonvulsant activity in albino CF1 mouse assessed as protection against subcutaneous metrazol-induced seizures at 100 mg/kg, ip measured after 0.5 hr
# Format: functional, organism-based
# Set-up: dose 100 mg/kg
# Settings: not given
row,Compound,Activity
1,O=C1NC(=O)[C@@H]2CCCCN2[C@H]1c1cccc(C(F)(F)F)c1,inactive

# Tested on: Mus musculus
# Test: Anticonvulsant activity in albino CF1 mouse assessed as protection against subcutaneous metrazol-induced seizures at 100 mg/kg, ip measured after 1 hr
# Format: functional, organism-based
# Set-up: dose 100 mg/kg
# Settings: not given
row,Compound,Activity
1,O=C1NC(=O)[C@@H]2CCCCN2[C@H]1c1cccc(C(F)(F)F)c1,inactive

# Tested on: Mus musculus
# Test: Anticonvulsant activity in albino CF1 mouse assessed as protection against subcutaneous metrazol-induced seizures at 100 mg/kg, ip measured after 4 hrs
# Format: functional, organism-based
# Set-up: dose 100 mg/kg
# Settings: not given
row,Compound,Activity
1,O=C1NC(=O)[C@@H]2CCCCN2[C@H]1c1cccc(C(F)(F)F)c1,inactive

# Tested on: Mus musculus
# Test: Neurotoxicity in albino CF1 mouse at 100 mg/kg, ip measured after 0.25 hr
# Format: toxicity, organism-based
# Set-up: dose 100 mg/kg, route intraperitoneal
# Settings: in vivo
row,Compound,Activity
1,O=C1NC(=O)[C@@H]2CCCCN2[C@H]1c1cccc(C(F)(F)F)c1,Non-toxic

# Tested on: Mus musculus
# Test: Neurotoxicity in albino CF1 mouse at 100 mg/kg, ip measured after 0.5 hr
# Format: toxicity, organism-based
# Set-up: dose 100 mg/kg, route intraperitoneal
# Settings: in vivo
row,Compound,Activity
1,O=C1NC(=O)[C@@H]2CCCCN2[C@H]1c1cccc(C(F)(F)F)c1,Non-toxic

# Tested on: Mus musculus
# Test: Neurotoxicity in albino CF1 mouse at 100 mg/kg, ip measured after 1 hr
# Format: toxicity, organism-based
# Set-up: dose 100 mg/kg, route intraperitoneal
# Settings: in vivo
row,Compound,Activity
1,O=C1NC(=O)[C@@H]2CCCCN2[C@H]1c1cccc(C(F)(F)F)c1,Non-toxic

# Tested on: Mus musculus
# Test: Neurotoxicity in albino CF1 mouse at 100 mg/kg, ip measured after 4 hrs
# Format: toxicity, organism-based
# Set-up: dose 100 mg/kg, route intraperitoneal
# Settings: in vivo
row,Compound,Activity
1,O=C1NC(=O)[C@@H]2CCCCN2[C@H]1c1cccc(C(F)(F)F)c1,Non-toxic

# Tested on: Mus musculus
# Test: Anticonvulsant activity in albino CF1 mouse assessed as protection against 32 mA current-induced seizures at 100 mg/kg, ip measured after 0.25 hr
# Format: functional, organism-based
# Set-up: dose 100 mg/kg
# Settings: not given
row,Compound,Activity
1,O=C1NC(=O)[C@@H]2CCCCN2[C@H]1c1cccc(C(F)(F)F)c1,Active

# Tested on: Mus musculus
# Test: Anticonvulsant activity in albino CF1 mouse assessed as protection against 32 mA current-induced seizures at 100 mg/kg, ip measured after 0.5 hr
# Format: functional, organism-based
# Set-up: dose 100 mg/kg
# Settings: not given
row,Compound,Activity
1,O=C1NC(=O)[C@@H]2CCCCN2[C@H]1c1cccc(C(F)(F)F)c1,Active

# Tested on: Mus musculus
# Test: Anticonvulsant activity in albino CF1 mouse assessed as protection against 32 mA current-induced seizures at 100 mg/kg, ip measured after 1 hr
# Format: functional, organism-based
# Set-up: dose 100 mg/kg
# Settings: not given
row,Compound,Activity
1,O=C1NC(=O)[C@@H]2CCCCN2[C@H]1c1cccc(C(F)(F)F)c1,inactive

# Tested on: Mus musculus
# Test: Anticonvulsant activity in albino CF1 mouse assessed as protection against 32 mA current-induced seizures at 100 mg/kg, ip measured after 2 hrs
# Format: functional, organism-based
# Set-up: dose 100 mg/kg
# Settings: not given
row,Compound,Activity
1,O=C1NC(=O)[C@@H]2CCCCN2[C@H]1c1cccc(C(F)(F)F)c1,inactive

# Tested on: Mus musculus
# Test: Anticonvulsant activity in albino CF1 mouse assessed as protection against 32 mA current-induced seizures at 100 mg/kg, ip measured after 4 hrs
# Format: functional, organism-based
# Set-up: dose 100 mg/kg
# Settings: not given
row,Compound,Activity
1,O=C1NC(=O)[C@@H]2CCCCN2[C@H]1c1cccc(C(F)(F)F)c1,inactive

# Tested on: Mus musculus
# Test: Neurotoxicity in 32 mA current-induced seizure albino CF1 mouse model at 100 mg/kg, ip measured after 0.25 hr
# Format: toxicity, organism-based
# Set-up: dose 100 mg/kg, route intraperitoneal
# Settings: in vivo
row,Compound,Activity
1,O=C1NC(=O)[C@@H]2CCCCN2[C@H]1c1cccc(C(F)(F)F)c1,Non-toxic

# Tested on: Mus musculus
# Test: Neurotoxicity in 32 mA current-induced seizure albino CF1 mouse model at 100 mg/kg, ip measured after 0.5 hr
# Format: toxicity, organism-based
# Set-up: dose 100 mg/kg, route intraperitoneal
# Settings: in vivo
row,Compound,Activity
1,O=C1NC(=O)[C@@H]2CCCCN2[C@H]1c1cccc(C(F)(F)F)c1,Non-toxic

# Tested on: Mus musculus
# Test: Neurotoxicity in 32 mA current-induced seizure albino CF1 mouse model at 100 mg/kg, ip measured after 1 hr
# Format: toxicity, organism-based
# Set-up: dose 100 mg/kg, route intraperitoneal
# Settings: in vivo
row,Compound,Activity
1,O=C1NC(=O)[C@@H]2CCCCN2[C@H]1c1cccc(C(F)(F)F)c1,Non-toxic

# Tested on: Mus musculus
# Test: Neurotoxicity in 32 mA current-induced seizure albino CF1 mouse model at 100 mg/kg, ip measured after 2 hrs
# Format: toxicity, organism-based
# Set-up: dose 100 mg/kg, route intraperitoneal
# Settings: in vivo
row,Compound,Activity
1,O=C1NC(=O)[C@@H]2CCCCN2[C@H]1c1cccc(C(F)(F)F)c1,Non-toxic

# Tested on: Mus musculus
# Test: Neurotoxicity in 32 mA current-induced seizure albino CF1 mouse model at 100 mg/kg, ip measured after 4 hrs
# Format: toxicity, organism-based
# Set-up: dose 100 mg/kg, route intraperitoneal
# Settings: in vivo
row,Compound,Activity
1,O=C1NC(=O)[C@@H]2CCCCN2[C@H]1c1cccc(C(F)(F)F)c1,Non-toxic

# Tested on: Rattus norvegicus
# Test: Anticonvulsant activity in Sprague-Dawley rat assessed as protection against maximal electroshock-induced seizures at 30 mg/kg, ip measured after 0.25 hr
# Format: functional, organism-based
# Set-up: dose 30 mg/kg
# Settings: not given
row,Compound,Activity
1,O=C1NC(=O)[C@@H]2CCCCN2[C@H]1c1cccc(C(F)(F)F)c1,inactive

# Tested on: Rattus norvegicus
# Test: Anticonvulsant activity in Sprague-Dawley rat assessed as protection against maximal electroshock-induced seizures at 30 mg/kg, ip measured after 0.5 hr
# Format: functional, organism-based
# Set-up: dose 30 mg/kg
# Settings: not given
row,Compound,Activity
1,O=C1NC(=O)[C@@H]2CCCCN2[C@H]1c1cccc(C(F)(F)F)c1,inactive

# Tested on: Rattus norvegicus
# Test: Anticonvulsant activity in Sprague-Dawley rat assessed as protection against maximal electroshock-induced seizures at 30 mg/kg, ip measured after 1 hr
# Format: functional, organism-based
# Set-up: dose 30 mg/kg
# Settings: not given
row,Compound,Activity
1,O=C1NC(=O)[C@@H]2CCCCN2[C@H]1c1cccc(C(F)(F)F)c1,inactive

# Tested on: Rattus norvegicus
# Test: Anticonvulsant activity in Sprague-Dawley rat assessed as protection against maximal electroshock-induced seizures at 30 mg/kg, ip measured after 2 hrs
# Format: functional, organism-based
# Set-up: dose 30 mg/kg
# Settings: not given
row,Compound,Activity
1,O=C1NC(=O)[C@@H]2CCCCN2[C@H]1c1cccc(C(F)(F)F)c1,inactive

# Tested on: Rattus norvegicus
# Test: Anticonvulsant activity in Sprague-Dawley rat assessed as protection against maximal electroshock-induced seizures at 30 mg/kg, ip measured after 4 hrs
# Format: functional, organism-based
# Set-up: dose 30 mg/kg
# Settings: not given
row,Compound,Activity
1,O=C1NC(=O)[C@@H]2CCCCN2[C@H]1c1cccc(C(F)(F)F)c1,inactive

# Tested on: Rattus norvegicus
# Test: Neurotoxicity in MES Sprague-Dawley rat model at 30 mg/kg, ip measured after 0.25 hr
# Format: toxicity, organism-based
# Set-up: dose 30 mg/kg, route intraperitoneal
# Settings: in vivo
row,Compound,Activity
1,O=C1NC(=O)[C@@H]2CCCCN2[C@H]1c1cccc(C(F)(F)F)c1,Non-toxic

# Tested on: Rattus norvegicus
# Test: Neurotoxicity in MES Sprague-Dawley rat model at 30 mg/kg, ip measured after 0.5 hr
# Format: toxicity, organism-based
# Set-up: dose 30 mg/kg, route intraperitoneal
# Settings: in vivo
row,Compound,Activity
1,O=C1NC(=O)[C@@H]2CCCCN2[C@H]1c1cccc(C(F)(F)F)c1,Non-toxic

# Tested on: Rattus norvegicus
# Test: Neurotoxicity in MES Sprague-Dawley rat model at 30 mg/kg, ip measured after 1 hr
# Format: toxicity, organism-based
# Set-up: dose 30 mg/kg, route intraperitoneal
# Settings: in vivo
row,Compound,Activity
1,O=C1NC(=O)[C@@H]2CCCCN2[C@H]1c1cccc(C(F)(F)F)c1,Non-toxic

# Tested on: Rattus norvegicus
# Test: Neurotoxicity in MES Sprague-Dawley rat model at 30 mg/kg, ip measured after 2 hrs
# Format: toxicity, organism-based
# Set-up: dose 30 mg/kg, route intraperitoneal
# Settings: in vivo
row,Compound,Activity
1,O=C1NC(=O)[C@@H]2CCCCN2[C@H]1c1cccc(C(F)(F)F)c1,Non-toxic

# Tested on: Rattus norvegicus
# Test: Neurotoxicity in MES Sprague-Dawley rat model at 30 mg/kg, ip measured after 4 hrs
# Format: toxicity, organism-based
# Set-up: dose 30 mg/kg, route intraperitoneal
# Settings: in vivo
row,Compound,Activity
1,O=C1NC(=O)[C@@H]2CCCCN2[C@H]1c1cccc(C(F)(F)F)c1,Non-toxic
